Experimental data: patent publication US20050266509A1, “Interaction of NMDA receptor with protein tyrosine phosphatase” (AGY Therapeutics, Inc., priority 2003, published 2005)

Target: T1, T Cell (Homo sapiens, UniProt P17706)
T1 sequence (P17706 1-415): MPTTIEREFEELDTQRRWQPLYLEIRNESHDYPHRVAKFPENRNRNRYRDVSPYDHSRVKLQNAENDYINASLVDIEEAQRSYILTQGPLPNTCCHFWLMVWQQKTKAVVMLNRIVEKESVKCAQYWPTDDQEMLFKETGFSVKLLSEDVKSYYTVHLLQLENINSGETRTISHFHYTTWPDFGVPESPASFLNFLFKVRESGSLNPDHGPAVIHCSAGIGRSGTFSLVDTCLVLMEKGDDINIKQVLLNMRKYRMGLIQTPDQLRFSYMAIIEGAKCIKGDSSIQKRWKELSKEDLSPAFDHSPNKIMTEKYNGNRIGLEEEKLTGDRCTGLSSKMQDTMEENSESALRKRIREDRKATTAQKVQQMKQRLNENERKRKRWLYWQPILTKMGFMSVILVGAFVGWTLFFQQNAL
Assay: FRET phosphatase assay, T Cell
Type: biochemical
Protocol: For the enzyme activity assay, 2.5 μl of compound, 12.5 μl of enzyme, and 10 μl of substrate (separated by air gaps) are added to columns 3 through 24 by the Biomek FX in a single dispense. After the dispense, the tips are washed with DMSO and water for re-use between each quadrant. Once the assay plates are set up, they are incubated at 27° C. for 45 minutes. Then 20 μl of detection buffer is added to stop the reaction and to allow the Europium antibody (Eu-Ab) and streptavidin-APC to bind to the substrate.
The plates are then placed in the plate reader, an Analyst HT. Excitation light at 360 nm is used to excite the Europium antibody with an emission at 620 nm. Fluorescence resonance energy transfer (FRET) from Eu-Ab to APC will only occur when they are in close proximity. Therefore, when an APC emission is observed at 665 nm the enzyme has been inhibited from removing the phosphate group from the substrate. The FRET assay is time-resolved (TR), where there is a delay between excitation light and collection of emission signals. This reduces the amount of stray light created by short-lived fluorescing molecules. The Analyst HT measures APC and Europium emission signals and calculates the ratio between the two intensities. Typical intensities for the Europium is ˜2000 and APC is ˜600.
The following compounds were tested by FRET against the listed phosphatases, and the IC50 were obtained. […]

In the case of `CCOC(=O)C(=CC1=C/C(=C/N(C)C)C(=O)O1)C(=O)OCC` [AGY- 0046293], the IC50 is reported as 6.72 mM.
